Literature values in patent publication US5424332A, “Pharmaceutical composition and process for the production thereof” (priority 1993, dated 1995).

Key:
Ehrlich ascites tumor = settings: mice
[1] = system: mitomycin C toxic effects
[2] = high doses; parenteral, dermal and, in particular, peroral administration

Row | SMILES | growth of the Ehrlich ascites tumor (Ehrlich ascites tumor) | toxic effects of mitomycin C [1] | anti-psoriatic action (psoriasis) | adverse effects and toxicity [2]
1 | O=C(O)/C=C/C(=O)O [fumaric acid] | impedes the growth | reduces the toxic effects | anti-psoriatic | unacceptable rate of adverse effects and high toxicity
2 | NC(=O)/C=C/C(N)=O [fumaramide] | – | – | – | unacceptable rate of adverse effects and high toxicity
3 | O=C(O)/C(O)=C(\O)C(=O)O [dihydroxy fumaric acid] | – | – | – | unacceptable rate of adverse effects and high toxicity
4 | N#C/C=C/C#N [fumaronitrile] | – | – | – | unacceptable rate of adverse effects and high toxicity
